From EP2931723B1, “NEW BICYCLIC COMPOUNDS AND THEIR USE AS ANTIBACTERIAL AGENTS AND -LACTAMASE INHIBITORS” (Fedora Pharmaceuticals Inc., priority 2012, dated 2014)

Tests used:
Assay in all cases: MIC, antibacterial and synergistic activity
Format in all cases: cell-based
E. coli ATCC 25922 = E. coli ATCC 25922 (Wt)
E.coli JMI 4103 = E.coli JMI 4103 (KPC-2, Tem-1, CMY-Type)
E. coli JMI 10767 [1] = conditions: E. coli JMI 10767 (Wt)
Description: (§1) In the Tables 10 - 12, compounds herein disclosed were tested in combination with various antibiotics against metallo β-lactamase producing bacteria. Table 3: Synergy of the inhibitor Ex. 1 (4 µg/mL) in combination with antibiotics

E. coli JMI 10768 = E. coli JMI 10768 (CTX-M15 (Weak ESBL))
Description: as §1

E. coli JMI 10770 [2] = conditions: E. coli JMI 10770 (CTX-M15 (Hyper ESBL))
Description: as §1

E. coli JMI 2665 = tested on: E. coli JMI 2665
Description: as §1

E. coli JMI 2671 = tested on: E. coli JMI 2671
Method in brief: (§2)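 Here the inhibitor, at a set 4 µg/mL, accompanies each antibiotic. MIC determination used MBL-positive bacteria.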

K. pneumo JMI 2673 [3] = conditions: K. pneumo JMI 2673 (CTX-M14 (ESBL))
Method in brief: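 Antibacterial synergy was assessed by testing a β-lactamase inhibitor compound in combination with antibiotics. The inhibitor was held at a fixed concentration of 4 µg/mL, and the minimum inhibitory concentration of the partner antibiotic was determined in its presence.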

K. pneumo JMI 2674 [4] = conditions: K. pneumo JMI 2674 (CTX-M15 (ESBL))
Method in brief: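 Antibacterial activity was assessed as minimum inhibitory concentrations against a β-lactamase-producing bacterial strain. Each test inhibitor was combined with an antibiotic, with the inhibitor held at a fixed 4 µg/mL, to determine whether it acted synergistically and restored the antibiotic's effect against the resistant organism.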

K. pneumo JMI 2699 = K. pneumo JMI 2699 (VIM-1, CTX-M3)
Method in brief: as §2

K. pneumo JMI 4088 = K. pneumo JMI 4088 (KPC-3 (Cpase))
Method in brief: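 The compound was tested for synergy by combining it with antibiotics and measuring minimum inhibitory concentrations against β-lactamase producing bacteria. The inhibitor was present at a fixed concentration of 4 µg/mL together with the partner antibiotic, and MIC values were recorded.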

K.pneumo JMI 4109 [5] = conditions: K.pneumo JMI 4109 (SHV-1, SHV-12)
Method in brief: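 Antibacterial synergy was assessed by pairing each inhibitor compound, at a constant concentration of 4 µg/mL, with β-lactam antibiotics. The combinations were run against bacterial strains that produce β-lactamases, and the readout was the minimum inhibitory concentration of the antibiotic in the presence of the inhibitor.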

P. aerug JMI 2686 = P. aerug JMI 2686 (KPC-2 (Cpase))
Method in brief: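 This antibacterial synergy assay measured the minimum inhibitory concentration of antibiotics combined with the disclosed inhibitor compounds. The inhibitor was held at 4 µg/mL throughout. The aim was to see whether the added compound strengthened the antibiotic's action against the tested bacteria.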

E. coli JMI 2692 = E. coli JMI 2692 (NDM-1, TEM-1, CTX-M-15)
Description: (§3) In the Tables 10 - 12, compounds herein disclosed were tested in combination with various antibiotics against metallo β-lactamase producing bacteria.

K. pneumo JMI 2693 = K. pneumo JMI 2693 (NDM-1 (Cpase))
Description: as §3

K. pneumo JMI 2681 = K. pneumo JMI 2681 (Oxa-48 (Cpase))
E. cloacae JMI 36 = E. cloacae JMI 36 (P99)
K.pneumo JMI 4109 [6] = conditions: K.pneumo JMI 4109 (SHV-1, SHV-12); substance alone
K. pneumo JMI 2673 [7] = conditions: K. pneumo JMI 2673 (CTX-M14 (ESBL)); substance alone
K. pneumo JMI 2674 [8] = conditions: K. pneumo JMI 2674 (CTX-M15 (ESBL)); substance alone
E. coli JMI 10767 [9] = conditions: E. coli JMI 10767 (Wt); remark: listed apart in the source
E. coli JMI 10770 [10] = conditions: Escherichia coli, JMI10770; E. coli JMI 10770 (CTX-M15 (Hyper ESBL)); substance alone
[11] = Aztreonam + inhibitor at 4 µg/mL
[12] = Ceftazidime + inhibitor at 4 µg/mL
[13] = Meropenem + inhibitor at 4 µg/mL

With `O=C(NO[C@H]1CCNC1)[C@@H]1CC[C@@H]2CN1C(=O)N2OS(=O)(=O)O` [Ex. 1, (2S,5R)-7-Oxo-N-[(3S)-pyrrolidin-3-yloxy]-6-(sulfooxy)-1,6-diazabicyclo[3.2.1]octane-2-carboxamide] the “MIC Aztreonam + inhibitor” value (E. coli ATCC 25922; [11]) was “≤.062 µg/mL”, the “MIC Ceftazidime + inhibitor” value (E. coli ATCC 25922; [12]) was no more than 0.25 µg/mL and the “MIC Meropenem + inhibitor” value (E. coli ATCC 25922; [13]) was “≤.031 µg/mL”. For the same compound, the MIC (E. coli ATCC 25922; Escherichia coli, ATCC25922, substance alone) was 8 µg/mL, the “MIC Aztreonam + inhibitor” value (E.coli JMI 4103; [11]) was greater than 4 µg/mL and the “MIC Ceftazidime + inhibitor” value (E.coli JMI 4103; [12]) was 8 µg/mL. The “MIC Meropenem + inhibitor” value (E.coli JMI 4103; [13]) was “≤.031 µg/mL”, the MIC (E.coli JMI 4103; Escherichia coli, JMI4103, substance alone) was 16 µg/mL and the “MIC Aztreonam + inhibitor” value (E. coli JMI 10767 [1]; [11]) was “≤.062 µg/mL”. For the same compound, the “MIC Ceftazidime + inhibitor” value (E. coli JMI 10767 [1]; [12]) was no more than 0.25 µg/mL, the “MIC Aztreonam + inhibitor” value (E. coli JMI 10768; [11]) was “≤.062 µg/mL” and the “MIC Ceftazidime + inhibitor” value (E. coli JMI 10768; [12]) was no more than 0.25 µg/mL. For the same compound, the MIC (E. coli JMI 10768; Escherichia coli, JMI10768, substance alone) was 8 µg/mL, the “MIC Aztreonam + inhibitor” value (E. coli JMI 10770 [2]; [11]) was “≤.062 µg/mL” and the “MIC Ceftazidime + inhibitor” value (E. coli JMI 10770 [2]; [12]) was no more than 0.25 µg/mL. For the same compound, the “MIC Meropenem + inhibitor” value (E. coli JMI 10770 [2]; [13]) was “≤.031 µg/mL”, the “MIC Aztreonam + inhibitor” value (E. coli JMI 2665; E. coli JMI 2665 (CMY-2 (Plasmid Cpase)), Aztreonam + inhibitor at 4 µg/mL) was “≤.062 µg/mL” and the “MIC Ceftazidime + inhibitor” value (E. coli JMI 2665; E. coli JMI 2665 (CMY-2 (Plasmid Cpase)), Ceftazidime + inhibitor at 4 µg/mL) was no more than 0.25 µg/mL. For the same compound, the “MIC Meropenem + inhibitor” value (E. coli JMI 2665; E. coli JMI 2665 (CMY-2 (Plasmid Cpase)), Meropenem + inhibitor at 4 µg/mL) was “≤.031 µg/mL”, the MIC (E. coli JMI 2665; Escherichia coli, JMI2665) was 4 µg/mL and the “MIC Aztreonam + inhibitor” value (E. coli JMI 2671; E. coli JMI 2671 (VIM-19 (Cpase)), Aztreonam + inhibitor at 4 µg/mL) was “≤.062 µg/mL”. The “MIC Ceftazidime + inhibitor” value (E. coli JMI 2671; E. coli JMI 2671 (VIM-19 (Cpase)), Ceftazidime + inhibitor at 4 µg/mL) was 2 µg/mL, the “MIC Meropenem + inhibitor” value (E. coli JMI 2671; E. coli JMI 2671 (VIM-19 (Cpase)), Meropenem + inhibitor at 4 µg/mL) was 2 µg/mL and the MIC (E. coli JMI 2671; Escherichia coli, JMI2671, E. coli JMI 2671 (VIM-19 (Cpase)), substance alone) was 4 µg/mL. The “MIC Aztreonam + inhibitor” value (K. pneumo JMI 2673 [3]; [11]) was “≤.062 µg/mL”, the “MIC Ceftazidime + inhibitor” value (K. pneumo JMI 2673 [3]; [12]) was no more than 0.25 µg/mL and the “MIC Meropenem + inhibitor” value (K. pneumo JMI 2673 [3]; [13]) was “≤.031 µg/mL”. For the same compound, the “MIC Aztreonam + inhibitor” value (K. pneumo JMI 2674 [4]; [11]) was “≤.062 µg/mL”, the “MIC Ceftazidime + inhibitor” value (K. pneumo JMI 2674 [4]; [12]) was no more than 0.25 µg/mL and the “MIC Meropenem + inhibitor” value (K. pneumo JMI 2674 [4]; [13]) was 0.062 µg/mL. For the same compound, the “MIC Aztreonam + inhibitor” value (K. pneumo JMI 2699; [11]) was 0.5 µg/mL, the “MIC Ceftazidime + inhibitor” value (K. pneumo JMI 2699; [12]) was 16 µg/mL and the “MIC Meropenem + inhibitor” value (K. pneumo JMI 2699; [13]) was 2 µg/mL. For the same compound, the MIC (K. pneumo JMI 2699; substance alone, read-out: MIC) was 8 µg/mL, the “MIC Aztreonam + inhibitor” value (K. pneumo JMI 4088; [11]) was “≤.062 µg/mL” and the “MIC Ceftazidime + inhibitor” value (K. pneumo JMI 4088; [12]) was no more than 0.25 µg/mL. For the same compound, the “MIC Meropenem + inhibitor” value (K. pneumo JMI 4088; [13]) was 0.062 µg/mL, the “MIC Aztreonam + inhibitor” value (K.pneumo JMI 4109 [5]; [11]) was “≤.062 µg/mL” and the “MIC Ceftazidime + inhibitor” value (K.pneumo JMI 4109 [5]; [12]) was no more than 0.25 µg/mL. For the same compound, the “MIC Meropenem + inhibitor” value (K.pneumo JMI 4109 [5]; [13]) was “≤.031 µg/mL”, the “MIC Aztreonam + inhibitor” value (P. aerug JMI 2686; [11]) was greater than 4 µg/mL and the “MIC Ceftazidime + inhibitor” value (P. aerug JMI 2686; [12]) was 16 µg/mL. For the same compound, the “MIC Meropenem + inhibitor” value (P. aerug JMI 2686; [13]) was greater than 2 µg/mL, the “MIC Aztreonam + inhibitor” value (E. coli JMI 2692; [11]) was 0.25 µg/mL and the “MIC Ceftazidime + inhibitor” value (E. coli JMI 2692; [12]) was no more than 0.25 µg/mL. The “MIC Meropenem + inhibitor” value (E. coli JMI 2692; [13]) was “≤.031 µg/mL”, the MIC (E. coli JMI 2692; Escherichia coli, JMI2692, substance alone, read-out: MIC) was 4 µg/mL and the “MIC Aztreonam + inhibitor” value (K. pneumo JMI 2693; [11]) was 0.125 µg/mL. The “MIC Ceftazidime + inhibitor” value (K. pneumo JMI 2693; [12]) was no more than 0.25 µg/mL, the “MIC Meropenem + inhibitor” value (K. pneumo JMI 2693; [13]) was 0.062 µg/mL and the MIC (K. pneumo JMI 2693; substance alone) was greater than 16 µg/mL. For the same compound, the “MIC Aztreonam + inhibitor” value (K. pneumo JMI 2681; [11]) was 4 µg/mL, the “MIC Ceftazidime + inhibitor” value (K. pneumo JMI 2681; [12]) was 4 µg/mL and the “MIC Meropenem + inhibitor” value (K. pneumo JMI 2681; [13]) was greater than 2 µg/mL. The MIC (K. pneumo JMI 2681; substance alone, read-out: MIC) was greater than 16 µg/mL, the “MIC Aztreonam + inhibitor” value (E. cloacae JMI 36; [11]) was 0.25 µg/mL and the “MIC Ceftazidime + inhibitor” value (E. cloacae JMI 36; [12]) was 1 µg/mL. The “MIC Meropenem + inhibitor” value (E. cloacae JMI 36; [13]) was 0.062 µg/mL, the MIC (E. cloacae JMI 36; Enterobacter cloacae, JMI36, substance alone, read-out: MIC) was greater than 16 µg/mL and the MIC (K.pneumo JMI 4109 [6]) was 4 µg/mL. For the same compound, the MIC (K. pneumo JMI 2673 [7]) was greater than 16 µg/mL, the MIC (K. pneumo JMI 2674 [8]) was greater than 16 µg/mL and the “MIC Meropenem + inhibitor” value (E. coli JMI 10767 [9]; [13]) was “≤.031 µg/mL”. For the same compound, the MIC (E. coli JMI 10767 [9]; Escherichia coli, JMI10767, substance alone) was 8 µg/mL and the MIC (E. coli JMI 10770 [10]) was 8 µg/mL.
